From patent publication US8968700B2, “Imaging of protease activity in live cells using activity based probes” (The Board of Trustees of the Leland Stanford Junior …, priority 2005, dated 2015)

Experiments:
[1] = target: T1, bovine cathepsin B (Bos taurus, UniProt P07688); assay: Kinetics of inhibition, progress curve method (kass); type: biochemical; conditions: bovine cathepsin B 1 nM; substrate Z-RR-AMC 10 μM; pseudo-first order
Procedure: (§1) The kinetics of inhibition was determined by progress curve method under pseudo-first order conditions with at least 10-fold molar excess of inhibitor. Recorded progress curves were analyzed by non-linear regression according to the following equation (Ref 36).
(§2) [P]=vz(1−e^−k·t)/k where [P] is the product, vz is the velocity at time zero and k is the pseudo first order rate constant. Apparent rate constant (kapp) was determined from the slope of plot k versus [I]. Due to irreversible and competitive mechanism of inhibition, kapp was converted to the association constant (kass) using the equation below: kass=kapp(1+[S]/KM)
(§3) Activity of human cathepsin L was measured using the fluorogenic substrate Z-FRAMC37 (Bachem, USA) (Km=7.1 μM) and cathepsin B was assayed against the fluorogenic substrate Z-RR-AMC38 (Bachem, USA) (Km=114 μM). Concentration of substrates during the measurement was 10 μM. Cathepsins B and L (1 nM final concentrations) were incubated with inhibitor concentrations, ranging from 10 to 2000 nM, in the presence of 10 μM of appropriate substrate. Total volume during the measurement was 100 μl. Increase of fluorescence (370 nm excitation, […] emission) was continuously monitored for 30 minutes by Spectramax M5 spectrofluorimeter.
(§4) (Molecular Devices, USA) and inhibition curves were recorded. DMSO concentration during all measurements was 3.5%.

[2] = target: T2, human cathepsin L (Homo sapiens, UniProt P07711); assay: as above; type: biochemical; conditions: human cathepsin L 1 nM; substrate Z-FR-AMC 10 μM; pseudo-first order
Procedure: as §1, §2, §3, §4

[3] = test system: MDA-MB 231 tumors; assay: In vivo imaging of cysteine protease activity in tumor-bearing mice (IVIS 200); parameters: species or system mouse; conditions: tail vein injection
Procedure: Three weeks prior to imaging, MDA-MB 435 or MDA-MB 231 cells (3×10^6 cell per site) were subcutaneously injected into the back left and right side of a Balb-c nude mouse. As is known in the literature, MDA-MB-435, expresses ALP56 (aspartic-like protease 56 kDa), which has homology to aspartic proteases, such as cathepsin D. Similarly, a trypsin-like protease secreted from MDA MB-231 cells can promote cell migration through autocrine activation of PAR-2. GB123 (1 μg) dissolved in DMSO/PBS was injected via the tail vein. Fluorescent images of living mice taken using an IVIS 200 imaging system equipped with a Cy5.5 filter at various time points after GB123 injection show localization of the probe to a tumor site. […] Labeling of active cysteine proteases in cell lines used to generate the tumors was carried out on SDS-PAGE. Intact monolayers of MDA MB-231 or MDA MB-435 cells were either pre-treated with the general papain family protease inhibitor JPM-OEt (50 μM) or with control DMSO (0.1%) for one hour and labeled by addition of GB123 (1 μM) to culture media for four hours. Crude detergent lysates were normalized for total protein, separated by SDS-PAGE, and visualized by scanning of the gel with a Typhoon flatbed laser scanner. […] Plotted values are expressed as percentage of fluorescence measured relative to the signal observed at two hours post injection of probe.

[4] = test system: MDA MB-231 or MDA MB-435 cells; assay: Labeling of active cysteine proteases in intact monolayers of tumor cell lines, SDS-PAGE; type: cell-based; conditions: 1 μM, four hours
Procedure: GB123 (1 μg) dissolved in DMSO/PBS was injected via the tail vein. Fluorescent images of living mice taken using an IVIS 200 imaging system equipped with a Cy5.5 filter at various time points after GB123 injection show localization of the probe to a tumor site. […] Labeling of active cysteine proteases in cell lines used to generate the tumors was carried out on SDS-PAGE. Intact monolayers of MDA MB-231 or MDA MB-435 cells were either pre-treated with the general papain family protease inhibitor JPM-OEt (50 μM) or with control DMSO (0.1%) for one hour and labeled by addition of GB123 (1 μM) to culture media for four hours. Crude detergent lysates were normalized for total protein, separated by SDS-PAGE, and visualized by scanning of the gel with a Typhoon flatbed laser scanner. […] All of these specific activities were sensitive to pre-treatment with the general inhibitor JPM-OEt. […] Plotted values are expressed as percentage of fluorescence measured relative to the signal observed at two hours post injection of probe.

[5] = test system: MDA-MB 231 or C2C12/ras tumors; assay: In vivo labeling of live mice with active probe and control inactive probe; parameters: species or system mouse
Procedure: Two to four weeks prior to imaging MDA-MB 231 or C2C12/ras cells (a myoblast cell line wherein ras blocks differentiation) at 2×10^6 cell per spot were injected subcutaneous to the back of Balb-c nude mice.
Mice bearing tumors of similar size were injected intravenous via the tail vein with a DMSO/PBS solution of GB123 or GB125 (0.8-1.1 μg/gr mice). DMSO/PBS was locally injected directly into tumors in indicated mice, 15 minutes prior to probe injection. Fluorescent intensity as photons per second per centimeter square per steradian (p/s/cm^2/sr) was recorded from living mice, (data not shown). Images were taken at various time points (e.g., 1 min., 5 hrs. and 22 hrs.) after probe injection using an IVIS 200 imaging system equipped with a Cy5.5 filter.

[6] = test system: protease species in tumor lysates; assay: Biochemical analysis of in vivo labeled tumors, SDS-PAGE of lysates; parameters: species or system mouse; conditions: FIG. 6a
Excerpt: Tumors from mice described in Example 7 were lysed in a detergent buffer. Crude lysates were normalized for total protein, separated by SDS-PAGE, and visualized by scanning of the gel with a Typhoon flatbed laser scanner, fluorescent images of corresponding mice are shown below gel images, where spotted areas indicate fluorescent readings, as obtained in Example 7. […] Lysates from a C2C12/ras tumor locally injected with DMSO/PBS were immuno precipitated using anti cathepsin B or cathepsin L antibodies as indicated. Samples were separated by SDS-PAGE, and visualized by scanning of the gel with a Typhoon flatbed laser scanner, as shown in FIG. 6b. The antibodies precipitated cat B and cat L complexes, indicating specific labeling of these proteases.

[7] = test system: tumor tissues; assay: Ex vivo imaging of tumor tissue cryo-sections; type: in vivo, mouse; conditions: 24 hours after probe injection, Cy5 channel
Procedure: Tumors from mice injected with either GB123 or GB125 were extracted 24 hours after probe injection and molded in OCT placed in tert-butanol cooled with liquid nitrogen. Cryo-sections (10 μm) of tumors were mounted with Fluoromount and imaged using a Zeiss 200M fluorescent microscope using a 40× lens and a Cy5 filter.

[8] = target: T1, bovine cathepsin B; assay: Recombinant cathepsin labeling, SDS-PAGE fluorescent scan; type: biochemical; conditions: labeling by GB111 and GB117
Procedure: (§5) 0.7 μg recombinant human Cathepsin L (a generous gift from Dr. V. Turk Jozef, Stefan institute Slovenia) or 0.4 μg bovine Cathepsin B (Sigma) in reaction buffer (50 mM acetate, 2 mM DTT and 5 mM MgCl2, pH 5.5) were treated with 25 μM JPM-OEt for 30 min (indicated samples) at room temperature. Increasing concentrations of GB111, GB117, were added to appropriate samples for 30 min. The reaction was stopped by adding sample buffer X4 (40% glycerol, 0.2M Tris/HCl 6.8, 20% β-mercaptoethanol, 12% SDS and 0.4 mg/ml bromophenol blue). Half of the sample was separated on a 12% SDS gel and scanned by a Typhoon laser flatbed scanner at 532/580.

[9] = test system: NIH-3T3 cells; assay: Imaging protease activity in live cells, fluorescence microscopy; type: cell-based, mouse; conditions: JPM-OEt 50 μM, 1 hour
Procedure: In these experiments (data not shown), cultures of NIH-3T3 cells were either pre-treated with the general papain family protease inhibitor JPM-OEt (50 μM) or with control DMSO (0.1%) for 1 hour and labeled by addition of GB111 or GB117 (1 μM) to growth media for 4-5 hours. The acidotropic lysosomal marker LysoTracker (which produces a green color) was added and cells were imaged using an inverted fluorescent microscope (Nikon). Cells were also treated and analyzed after being washed for 3 hours in growth media containing JPM-OEt (50 μM) or DMSO (0.1%) prior to imaging. As a result, red fluorescence—indicating protease activity, green fluorescence—indicating lysosomal compartments, and yellow fluorescence resulting from overlap in green and red signals was observed.
NIH 3T3 cells (165,000 cells/well) were seeded on glass cover slips in six-well tissue culture plates containing growth medium 1 day before treatment. Cells were either pretreated with the general papain family protease inhibitor JPM-OEt (50 μM) or with control DMSO (0.1%) for 1 hour. Cells were labeled by addition of GB111 or GB117 (1 μM) to growth media at pH 7.4 for 4-5 hours. Cells were transferred to growth media without phenol red. LysoTracker (50 nM final concentration) was added minutes before cells were imaged using an inverted fluorescent microscope (Nikon Diaphot-300 microscope with the 60 (NA 1.4) objective). […]

[10] = test system: MCF-10A cells; assay: Imaging in three-dimensional cell culture on Cultrex, confocal microscopy; type: cell-based; conditions: JPM-OEt 50 μM
Procedure: In these experiments, reconstituted basement membrane, Cultrex (Trevigen) was mixed with 1 μM GB111 or GB117 with or without JPM-OEt (50 μM). MCF-10A cells were grown three-dimensional cultures on Cultrex containing probes with or without inhibitor for 3 days then imaged by confocal microscopy using a water immersion lens (Zeiss).
MCF-10A cells were grown in 3D culture on reconstituted basement membrane extracted from an EHS mouse sarcoma (Cultrex from Trevigen) as previously described 35. GB117 or GB111 was added to Cultrex (1 μM final concentration) upon cell seeding and day 3 structures were imaged as described below. Day 8 structures grown Cultrex without probes were treated with 1 μM GB111 for 3 hours in assay media (culture media with 2% horse serum and 5 ng/mL EGF). Cells were washed overnight in assay media, fixed and imaged as described below.

[11] = test system: endogenous cathepsin activity; assay: In vivo whole animal imaging with spectral imager; parameters: species or system mouse; conditions: 100 mg/kg IP 2 hours prior to GB117
Excerpt: Photographs illustrating fluorescence imaging of endogenous cathepsin activity in live mice using the quenched activity-based probe GB117 were obtained with the CR1-Maestro™ Spectral imager, and comparisons were made between mice (a) with no probe, (b) with GB117 and (c) with GB117 plus the general cathepsin inhibitor JPM-OEt.
Areas of more intense labeling in the center of the animal (likely labeling of the liver, an organ with high cathepsin activity) were seen.
This work utilized a spectral imager (CRI Maestro) at the small animal imaging facility at Stanford. This new technology makes it possible to acquire the entire spectrum of light emission. Following spectral acquisition, the wavelengths specific to the injected probe can be defined, and autofluorescence subtracted. […] Techniques for spectral imaging in connection with multiple chromosome labels (“chromosome painting”) are known and may be adapted for use in vivo. See U.S. Pat. Nos. 5,936,731 and 6,690,817. A spectral imager is capable of collecting spatial (imaging) information as well as spectral information at every pixel in the image. This 3 dimensional data set enables the detailed study of both absorptive and fluorescent, histological and cellular material. […]

[12] = target: T2, human cathepsin L; assay: Recombinant cathepsin labeling, SDS-PAGE fluorescent scan; type: biochemical; parameters: gift from Dr. V. Turk, Jozef Stefan Institute, Slovenia; conditions: labeling by GB111 and GB117
Procedure: as §5

T2 sequence (P07711 114-333): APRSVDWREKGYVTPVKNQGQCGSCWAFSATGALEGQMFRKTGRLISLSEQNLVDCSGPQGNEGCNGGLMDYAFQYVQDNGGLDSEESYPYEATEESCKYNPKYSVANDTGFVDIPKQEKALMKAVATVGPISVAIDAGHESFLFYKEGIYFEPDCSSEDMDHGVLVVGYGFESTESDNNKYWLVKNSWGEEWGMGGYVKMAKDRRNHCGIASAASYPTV

Cc1cccc(C)c1C(=O)OCC(=O)[C@H](CCCCN)NC(=O)[C@H](Cc1ccccc1)NC(=O)OCc1ccccc1 [GB111-NH2]
kass (inhibition rate constant) [1]: 38500 ± 7700 M^−1s^1 | kass (inhibition rate constant) [2]: 296400 ± 18100 M^−1s^1

CCN1C(=CC=CC=CC2=[N+](CCCCCC(=O)NCCCC[C@H](NC(=O)[C@H](Cc3ccccc3)NC(=O)OCc3ccccc3)C(=O)COC(=O)c3c(C)cccc3C)c3ccc(S(=O)(=O)O)cc3C2(C)C)C(C)(C)c2cc(S(=O)(=O)O)ccc21 [GB123]
fluorescent signal in tumor [3]: accumulation of fluorescent signal was observed over time | labeling of cysteine protease activities in cell lines [4]: increased labeling of a number of cysteine protease activities in MDA-MB 231 relative to the MDA-MB 435 cells | fluorescence after 1 min. ([5]; MDA-MB-231 injected mice): showed fluorescence | retention of observable signal ([5]; intravenous via tail vein, 0.8-1.1 μg/gr): at least 22 hrs | fluorescence of labeled bands in tumor lysates [6]: significant fluorescence | fluorescent signal in tumor cryo-sections [7]: accumulation of the specific fluorescent signal

JPM-OEt
effect of inhibitor pre-treatment on probe labeling [8]: specifically competed | effect of inhibitor pre-treatment on GB117 labeling pattern [9]: blocked | effect of inhibitor on GB117 staining in 3D culture [10]: completely blocked | effect of inhibitor pre-treatment on GB117 signal in live mouse [11]: significantly reduced fluorescent signal in the entire animal | effect of inhibitor pre-treatment on probe labeling [12]: specifically competed
